Several values for one entry are separate records, joined by “and”; a condition that tells them apart may be missing. Equal values may be shown once.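 Tested at 5 concentrations; 48 h exposure; 96-well plates; endpoints linearly interpolated, else capped at highest concentration. GI50 marks 50% less growth. TGI marks complete inhibition of growth.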 Bounds are passed on as bounds.

Here are results for 16 molecules from PubChem BioAssay (NCI).

The test system of one test is M14 melanoma. Nature of the test: NCI tumour cell line growth inhibition, 48 h.
As for `CCn1c(-c2nonc2N)nc2cncc(C(=O)N3CCNCC3)c21`, the GI50 is greater than 25 µM and the TGI is greater than 25 µM.

Regarding `c1ccc2[nH]c(-c3ccc(N4CCN(c5ccc(-c6nc7ccccc7[nH]6)cc5)CC4)cc3)nc2c1`, the GI50 is 12.4 µM and the TGI was greater than 100 µM.

`CCN(CC)CCOc1ccc(C(=C(C)c2ccc(Cl)cc2)c2ccc(OCCN(CC)CC)cc2)cc1`: the GI50 is 0.633 µM and the TGI was 1.14 µM.

Turning to `C[C@]12CC[C@H]3[C@@H](CCC4=CC(=O)CC[C@@H]43)[C@@H]1CC[C@@H]2OC(=O)N(CCCl)N=O`, the GI50 was 4.27 µM and the TGI was 21.4 µM.

In the case of `CC12CCC(=O)C=C1CCC1C2CCC2(C)C(C(=O)Cn3cnc4c(=S)nc[nH]c43)CCC12` (centres undefined), the TGI was greater than 100 µM.

As to `CN(C)CCNC(=O)c1cccn2c(=O)c3cc4ccccc4cc3nc12`, the GI50 is 0.222 µM and the TGI came to 1.21 µM.

On to `COc1ccc(Cn2nc(-c3cc(OC)c(OC)c(OC)c3)c3c2CCc2cnoc2-3)cc1OC`, for which the GI50 is 4.08 µM and the TGI was 47.4 µM.

A further test deals with NCI-H522 lung. Nature of the test: NCI tumour cell line growth inhibition, 48 h.
Take `O=c1cc(CNc2cc(F)cc(F)c2)c2ccc(I)cc2[nH]1`: the GI50 is 0.305 µM and the TGI is greater than 100 µM.

Consider `CC[C@](C)(O)C(=O)O[C@H]1C(=O)O[C@@H]2C[C@H]3C(C)=CC(=O)[C@@H](O)[C@]3(C)[C@H]3[C@@]4(O)OC[C@]32[C@@H]1[C@@H](C)[C@H]4O`, for which the GI50 is 0.0296 µM and the TGI was 0.148 µM.

`NC(=O)[C@H]1CCN(c2ncnc(N)c2F)C[C@@H]1N1CCC[C@@H](Nc2cc(Cl)cc(C(F)(F)F)c2)C1=O`: the GI50 was 7.11 µM and the TGI was 28.4 µM.

For the molecule `CCN(CC)c1ccc(/C=C/c2cc(C)c3ccccc3n2)cc1`, the GI50 was 1.31 µM and the TGI was 3.91 µM.

Turning to `O=C(CCl)c1ccc([N+](=O)[O-])o1`, the GI50 was 2.81 µM and the TGI was greater than 21.1 µM.

Molecule `Nc1ncnc2c1ccn2C1OC2COP(=O)(O)OC2C1O` (centres undefined) gave a TGI of 1.07 µM.

Regarding `Cc1cc(N2CCCCC2)nc(N(CCNc2ccnc3cc(Cl)ccc23)Cc2ccco2)n1`, the GI50 was 1.61 µM and the TGI is 3.52 µM.

In turn, `O=C(O)[C@@H]1C2CC([C@@H]1C(=O)O)[C@H](N1C(=O)CCC1=O)[C@@H]2Br` (some centres undefined) showed a TGI greater than 100 µM.

Regarding `CCCN1C(=O)/C(=c2\sc3n(c2=O)C2C(NN=3)N(CC)C(=O)N2CC)c2ccccc21` (centres undefined), the GI50 was 0.356 µM and the TGI came out at 4.51 µM.

For the molecule `CCn1c(-c2nonc2N)nc2cncc(C(=O)N3CCNCC3)c21`, the GI50 is greater than 25 µM and the TGI was greater than 25 µM.

For `c1ccc2[nH]c(-c3ccc(N4CCN(c5ccc(-c6nc7ccccc7[nH]6)cc5)CC4)cc3)nc2c1`, the GI50 is greater than 100 µM and the TGI is greater than 100 µM.

As to `CCN(CC)CCOc1ccc(C(=C(C)c2ccc(Cl)cc2)c2ccc(OCCN(CC)CC)cc2)cc1`, the GI50 is 0.591 µM and the TGI is 1.25 µM.

In the case of `C[C@]12CC[C@H]3[C@@H](CCC4=CC(=O)CC[C@@H]43)[C@@H]1CC[C@@H]2OC(=O)N(CCCl)N=O`, the GI50 was 5.79 µM and the TGI came to 29 µM.

Consider `CC12CCC(=O)C=C1CCC1C2CCC2(C)C(C(=O)Cn3cnc4c(=S)nc[nH]c43)CCC12` (centres undefined), for which the TGI was greater than 100 µM.

Take `CN(C)CCNC(=O)c1cccn2c(=O)c3cc4ccccc4cc3nc12`: the GI50 was 0.182 µM and the TGI is 0.856 µM.

As for `COc1ccc(Cn2nc(-c3cc(OC)c(OC)c(OC)c3)c3c2CCc2cnoc2-3)cc1OC`, the GI50 is 3.17 µM and the TGI was greater than 100 µM.

In a further test the test system is UO-31 renal. Nature of the test: NCI tumour cell line growth inhibition, 48 h.
With `O=c1cc(CNc2cc(F)cc(F)c2)c2ccc(I)cc2[nH]1`, the GI50 is 4.27 µM and the TGI is greater than 100 µM.

As for `CC[C@](C)(O)C(=O)O[C@H]1C(=O)O[C@@H]2C[C@H]3C(C)=CC(=O)[C@@H](O)[C@]3(C)[C@H]3[C@@]4(O)OC[C@]32[C@@H]1[C@@H](C)[C@H]4O`, the GI50 is 0.662 µM; the TGI is 3.71 µM and 3.78 µM.

On to `NC(=O)[C@H]1CCN(c2ncnc(N)c2F)C[C@@H]1N1CCC[C@@H](Nc2cc(Cl)cc(C(F)(F)F)c2)C1=O`, for which the GI50 was 9.16 µM and the TGI is greater than 100 µM.

As to `CCN(CC)c1ccc(/C=C/c2cc(C)c3ccccc3n2)cc1`, the GI50 was 3.18 µM and the TGI turned out to be 15 µM.

In the case of `O=C(CCl)c1ccc([N+](=O)[O-])o1`, the GI50 was 2.14 µM and the TGI worked out at 6.7 µM.

For the molecule `Nc1ncnc2c1ccn2C1OC2COP(=O)(O)OC2C1O` (centres undefined), the TGI is greater than 100 µM.

On to `Cc1cc(N2CCCCC2)nc(N(CCNc2ccnc3cc(Cl)ccc23)Cc2ccco2)n1`, for which the GI50 is 1.41 µM and the TGI amounted to 2.77 µM.

As for `O=C(O)[C@@H]1C2CC([C@@H]1C(=O)O)[C@H](N1C(=O)CCC1=O)[C@@H]2Br` (some centres undefined), the TGI is greater than 100 µM.

Regarding `CCCN1C(=O)/C(=c2\sc3n(c2=O)C2C(NN=3)N(CC)C(=O)N2CC)c2ccccc21` (centres undefined), the GI50 is 0.744 µM and the TGI was 17.6 µM.

`CCn1c(-c2nonc2N)nc2cncc(C(=O)N3CCNCC3)c21`: the GI50 was greater than 25 µM and the TGI was greater than 25 µM.

For `c1ccc2[nH]c(-c3ccc(N4CCN(c5ccc(-c6nc7ccccc7[nH]6)cc5)CC4)cc3)nc2c1`, the GI50 was greater than 100 µM and the TGI is greater than 100 µM.

For `CCN(CC)CCOc1ccc(C(=C(C)c2ccc(Cl)cc2)c2ccc(OCCN(CC)CC)cc2)cc1`, the GI50 was 0.503 µM and the TGI is 0.969 µM.

Consider `C[C@]12CC[C@H]3[C@@H](CCC4=CC(=O)CC[C@@H]43)[C@@H]1CC[C@@H]2OC(=O)N(CCCl)N=O`, for which the GI50 was 0.837 µM and the TGI was found to be 14.1 µM.

Regarding `CC12CCC(=O)C=C1CCC1C2CCC2(C)C(C(=O)Cn3cnc4c(=S)nc[nH]c43)CCC12` (centres undefined), the TGI was greater than 100 µM.

Take `COc1ccc(Cn2nc(-c3cc(OC)c(OC)c(OC)c3)c3c2CCc2cnoc2-3)cc1OC`: the GI50 was 4.17 µM and the TGI is greater than 100 µM.
